Results from patent publication US6287813A, “Antibiotic-based gene regulation system” (Cistronics Cell Technology GmbH, priority 1999, dated 2001).

Tests used:
PIT3/PPIR ON = molecular target: T1, PIT3/PPIR ON (Streptomyces coelicolor, UniProt Q9ADN3); experiment: PipON SEAP assay, CHO-K1 cotransfected with pMF208 (PPIR ON-SEAP) and pMF207 (PIT3; Pip-KRAB); assay type: cell-based
T1 construct: pMF207 with pMF208 in CHO-K1
T1 sequence (Q9ADN3 1-252): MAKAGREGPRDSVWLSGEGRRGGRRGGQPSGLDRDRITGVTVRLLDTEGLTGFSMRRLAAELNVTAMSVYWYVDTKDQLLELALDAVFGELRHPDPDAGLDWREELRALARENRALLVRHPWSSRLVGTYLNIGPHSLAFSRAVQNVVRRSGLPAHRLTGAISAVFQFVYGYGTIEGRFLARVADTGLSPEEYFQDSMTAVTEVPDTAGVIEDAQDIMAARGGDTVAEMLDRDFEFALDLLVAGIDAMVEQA
Excerpt: The Classical PIT/PPIR system belongs to the "OFF" family of regulation concepts since gene expression is activated upon withdrawal of the regulating antibiotic. However, in some applications such as gene therapy and tissue engineering an "ON" system which is induced upon addition of streptogramin antibiotics is more desirable. We therefore constructed a new Pip-based binary PION system which consists of a PPIR ON promoter and a set of two different transrepressors. PPIR ON consists of a PIR3 module containing 3 consecutive Pip binding elements (SEQ ID NO:21; Example 3) placed in front of the strong viral SV40 promoter. Transrepressors such as PIT3, which consists of a protein fusion between Pip and the KRAB silencing domain of the human kox-1 gene (Deuschle et al., 1995, Mol. Cell Biol. 15: 1907-1914) and PIT4, which is simply Pip expressed in a eukaryotic configuration, bind to PIR3 in front of PSV40 and block transcription of this promoter. Besides sterical transcription blocking the silencing domain of PIT3 can additionally downregulate PSV40 activity. […]
Table 9: Comparison of the regulation characteristics of the PipON systems. CHO-K1 cells were simultaneously cotransfected with the plasmids indicated and the SEAP readout (slope a of the p-nitrophenolphosphate-based light absorbance time courses) was determined in the presence and absence of pristinamycin 48 hr post transfection. […]

[1] = test system: PIT-dependent promoters PPIR, PPIR2, PPIR3; experiment: SEAP expression from modified PI-responsive promoters (PPIR, PPIR2, PPIR3); assay type: cell-based, Streptomyces coelicolor
Excerpt: The naturally occurring Pptr sequence contains only three distinct Pip binding sites which could accommodate PIT. In order to enhance maximal expression from streptogramin-responsive system, we constructed PI-responsive promoters with two (PPIR2) and three (PPIR3) ptr binding motifs with a total of 6 and 9 Pip binding sites, respectively.
Both DNA fragments were digested with AatII and Sse8387I (corresponding restriction sites are shown in bold) and ligated to the corresponding sites of pMF172 (PPIR -SEAP; AatII/Sse8387I) thereby replacing the single Pip binding sequence (Pptr of S. pristinaespiralis; Salah-Bey et al., 1995; Salah-Bey and Thompson, 1995) to result in plasmids pMF198 (PPIR2 -SEAP) and pMF199 (PPIR3 -SEAP). […]

PIT-dependent promoters PPIR, PPIR2, PPIR3, sequence (as listed by the source): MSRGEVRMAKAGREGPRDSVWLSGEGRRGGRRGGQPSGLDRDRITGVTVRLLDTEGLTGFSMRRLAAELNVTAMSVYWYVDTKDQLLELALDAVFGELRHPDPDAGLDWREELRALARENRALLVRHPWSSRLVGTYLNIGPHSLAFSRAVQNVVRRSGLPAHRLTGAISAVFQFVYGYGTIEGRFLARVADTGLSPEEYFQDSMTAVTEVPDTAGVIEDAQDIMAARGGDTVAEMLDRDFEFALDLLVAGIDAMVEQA

pristinamycin I [PI]
SEAP readout (slope of the p-nitrophenolphosphate-based light absorbance time courses) (PIT3/PPIR ON; +PI (2 μg/ml) column, CHO + pMF208 + pMF207, 48 hr post transfection): 0.00055 ± 0.0003 | Induction factor (PIT3/PPIR ON; PIT3-PPIR ON configuration, 2880 min): about 150 | SEAP expression in the presence of PI ([1]; PPIR2 -SEAP (pMF198)): 0.073 ± 0.004 | SEAP expression in the presence of PI ([1]; PPIR2 -SEAP (pMF199) as printed): 0.09 ± 0.008 | SEAP expression in the presence of PI ([1]; PPIR -SEAP (pMF172)): 0.04 ± 0.019
